Test results: patent publication US20130252930A1 (BIOMARIN PHARMACEUTICAL INC., priority 2010, published 2013)

These molecules were tested against T1, CYP17 (human testicular microsome) (Homo sapiens, UniProt P05093) (assay: CYP17 enzymatic assay (% inhibition at 1 nM) (Biological Example 12)). Details: compound at 1 nM, read-out: Biological Example No. 12: CYP17 enzymatic assay % inhibition at 1 nM.
T1 construct: using microsomal fraction from human testis (Celsis Cat #S00110) as the enzyme source; tissue Celsis S00110; host or cells: human testis microsomal fraction
T1 sequence (P05093 1-508): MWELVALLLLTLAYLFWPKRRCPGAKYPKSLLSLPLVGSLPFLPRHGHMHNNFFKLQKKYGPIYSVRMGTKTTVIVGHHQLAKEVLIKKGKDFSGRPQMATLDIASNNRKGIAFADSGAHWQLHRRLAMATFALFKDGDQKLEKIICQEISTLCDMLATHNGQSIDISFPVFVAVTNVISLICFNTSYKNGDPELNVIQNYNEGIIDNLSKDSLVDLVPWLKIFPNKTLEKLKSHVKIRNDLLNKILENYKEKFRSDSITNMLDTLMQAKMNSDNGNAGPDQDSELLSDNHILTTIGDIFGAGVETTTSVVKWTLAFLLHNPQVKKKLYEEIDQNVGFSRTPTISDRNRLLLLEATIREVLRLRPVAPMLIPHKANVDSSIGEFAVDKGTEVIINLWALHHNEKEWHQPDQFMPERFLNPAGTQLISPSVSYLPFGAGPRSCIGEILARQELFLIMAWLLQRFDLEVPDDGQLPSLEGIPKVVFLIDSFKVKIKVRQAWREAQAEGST
Format: biochemical
For C[C@]1(O)CC[C@@]2(C)C(CCC3C2CC[C@]2(C)C(c4cncc(Cl)c4)=CCC32)C1 (stereo partly drawn) [Compound 265, (3S,10S,13S)-17-(5-chloropyridin-3-yl)-3,10,13-trimethyl-2,3,4,5,6,7,8,9,10,11,12,13,14,15-tetradecahydro-1H-cyclopenta[a]phenanthren-3-ol], the inhibition at 0.001 µM was < 10%. Molecule C[C@@]1(O)CC[C@@]2(C)C(CCC3C2CC[C@]2(C)C(c4cncc(Cl)c4)=CCC32)C1 (stereo partly drawn) [Compound 266, (3R,10S,13S)-17-(5-chloropyridin-3-yl)-3,10,13-trimethyl-2,3,4,5,6,7,8,9,10,11,12,13,14,15-tetradecahydro-1H-cyclopenta[a]phenanthren-3-ol] has an inhibition at 0.001 µM of 10 to 50%. With C[C@]12CC[C@H]3[C@@H](CC=C4C[C@@H](O)CC[C@@]43C)C1=CC=C2c1cncc(Cl)c1 [Compound 273, (3S,10R,13S)-17-(5-chloropyridin-3-yl)-10,13-dimethyl-2,3,4,7,8,9,10,11,12,13-decahydro-1H-cyclopenta[a]phenanthren-3-ol] the inhibition at 0.001 µM was 10 to 50%. With C[C@]12CC[C@H](O)CC1=CCC1C2CC[C@]2(C)C(c3cncc(C#N)c3)=CCC12 (stereo partly drawn) [Compound 275, 5-((3S,10R,13S)-3-hydroxy-10,13-dimethyl-2,3,4,7,8,9,10,11,12,13,14,15-dodecahydro-1H-cyclopenta[a]phenanthren-17-yl)nicotinonitrile] the inhibition at 0.001 µM was 10 to 50%. Molecule Cc1cnc(F)c(C2=CCC3C4CC=C5C[C@@H](O)CC[C@]5(C)C4CC[C@]23C)c1 (stereo partly drawn) [Compound 277, (3S,10R,13S)-17-(2-fluoro-5-methylpyridin-3-yl)-10,13-dimethyl-2,3,4,7,8,9,10,11,12,13,14,15-dodecahydro-1H-cyclopenta[a]phenanthren-3-ol] has an inhibition at 0.001 µM of 10 to 50%. For Cc1cc(C2=CCC3C4CC=C5C[C@@H](O)CC[C@]5(C)C4CC[C@]23C)cnc1F (stereo partly drawn) [Compound 278, (3S,10R,13S)-17-(6-fluoro-5-methylpyridin-3-yl)-10,13-dimethyl-2,3,4,7,8,9,10,11,12,13,14,15-dodecahydro-1H-cyclopenta[a]phenanthren-3-ol], the inhibition at 0.001 µM was < 10%. For C[C@]12CC[C@H](O)CC1=CCC1C2CC[C@]2(C)C(c3cncc(NS(=O)(=O)C(F)(F)F)c3)=CCC12 (stereo partly drawn) [Compound 282, 1,1,1-trifluoro-N-(5-((3S,10R,13S)-3-hydroxy-10,13-dimethyl-2,3,4,7,8,9,10,11,12,13,14,15-dodecahydro-1H-cyclopenta[a]phenanthren-17-yl)pyridin-3-yl)methanesulfonamide], the inhibition at 0.001 µM was < 10%. C[C@]12CC[C@H](O)CC1=CCC1C2CC[C@]2(C)C(c3cncc(NS(C)(=O)=O)c3)=CCC12 (stereo partly drawn) [Compound 284, N-(5-((3S,10R,13S)-3-hydroxy-10,13-dimethyl-2,3,4,7,8,9,10,11,12,13,14,15-dodecahydro-1H-cyclopenta[a]phenanthren-17-yl)pyridin-3-yl)methanesulfonamide] was tested, and the inhibition at 0.001 µM was < 10%. In the case of CC1C(O)CC[C@@]2(C)C1CCC1C2CC[C@]2(C)C(c3cncc(F)c3)=CCC12 (stereo partly drawn) [Compound 305, (10R,13S)-17-(5-fluoropyridin-3-yl)-4,10,13-trimethyl-2,3,4,5,6,7,8,9,10,11,12,13,14,15-tetradecahydro-1H-cyclopenta[a]phenanthren-3-ol], the inhibition at 0.001 µM is reported as < 10%. In the case of CC1C(O)CC[C@@]2(C)C1CCC1C2CC[C@]2(C)C(c3cncc(C(F)F)c3)=CCC12 (stereo partly drawn) [Compound 306, (10R,13S)-17-(5-(difluoromethyl)pyridin-3-yl)-4,10,13-trimethyl-2,3,4,5,6,7,8,9,10,11,12,13,14,15-tetradecahydro-1H-cyclopenta[a]phenanthren-3-ol], the inhibition at 0.001 µM is reported as < 10%.

Same assay, conditions: compound at 1 nM, read-out: CYP17 enzymatic assay % inhibition at 1 nM (Biological Example No. 12)
With CCNC(=O)NC1CC[C@@]2(C)C(=CC[C@@H]3[C@@H]2CC[C@]2(C)C(c4cncc(OC)c4)=CC[C@@H]32)C1 (stereo partly drawn) [Compound 234, 1-ethyl-3-((10R,13S)-17-(5-methoxypyridin-3-yl)-10,13-dimethyl-2,3,4,7,8,9,10,11,12,13,14,15-dodecahydro-1H-cyclopenta[a]phenanthren-3-yl)urea] the inhibition at 0.001 µM was 10 to 50%. In the case of C[C@]12CCC(NC(=O)c3nccs3)CC1=CCC1C2CC[C@]2(C)C(n3ccnc3)=CCC12 (stereo partly drawn) [Compound 241, N-((10R,13S)-17-(1H-imidazol-1-yl)-10,13-dimethyl-2,3,4,7,8,9,10,11,12,13,14,15-dodecahydro-1H-cyclopenta[a]phenanthren-3-yl)thiazole-2-carboxamide], the inhibition at 0.001 µM is reported as 10 to 50%. For CCNC(=O)N[C@@H]1CC[C@@]2(C)C(CC[C@@H]3[C@@H]2CC[C@]2(C)C(n4ccnc4)=CC[C@@H]32)C1 (stereo partly drawn) [Compound 247, 1-((3R,10S,13S)-17-(1H-imidazol-1-yl)-10,13-dimethyl-2,3,4,5,6,7,8,9,10,11,12,13,14,15-tetradecahydro-1H-cyclopenta[a]phenanthren-3-yl)-3-ethylurea], the inhibition at 0.001 µM was > 50%. With C[C@]12CC[C@H]3[C@@H](CC(=O)C45CC4CC[C@]35C)C1=CC=C2c1cccnc1 (stereo partly drawn) [Compound 250, (3aR,5aS)-3a,5a-dimethyl-6-(pyridin-3-yl)-1a,2,3,3a,3b,4,5,5a,8b,9-decahydrocyclopenta[a]cyclopropa[2,3]cyclopenta[1,2-f]naphthalen-10(1H)-one] the inhibition at 0.001 µM was > 50%. C[C@]12CC[C@H]3[C@@H](CC(Nc4nccs4)C45CC4CC[C@]35C)[C@@H]1CC=C2c1cccnc1 (stereo partly drawn) [Compound 251, N-((3aR,5aS)-3a,5a-dimethyl-6-(pyridin-3-yl)-1,1a,2,3,3a,3b,4,5,5a,8,8a,8b,9,10-tetradecahydrocyclopenta[a]cyclopropa[2,3]cyclopenta[1,2-f]naphthalen-10-yl)thiazol-2-amine] was tested, and the inhibition at 0.001 µM was 10 to 50%. With C[C@]12CC[C@@](O)(C3CC3)CC1CC[C@@H]1[C@@H]2CC[C@]2(C)C(c3cccnc3)=CC[C@@H]12 (stereo partly drawn) [Compound 252, (3S,10S,13S)-3-cyclopropyl-10,13-dimethyl-17-(pyridin-3-yl)-2,3,4,5,6,7,8,9,10,11,12,13,14,15-tetradecahydro-1H-cyclopenta[a]phenanthren-3-ol] the inhibition at 0.001 µM was 10 to 50%. C[C@@]1(O)CC[C@@]2(C)C(CCC3C2CC[C@]2(C)C(c4cccnc4)=CCC32)C1 (stereo partly drawn) [Compound 253, (3R,10S,13S)-3,10,13-trimethyl-17-(pyridin-3-yl)-2,3,4,5,6,7,8,9,10,11,12,13,14,15-tetradecahydro-1H-cyclopenta[a]phenanthren-3-ol] was tested, and the inhibition at 0.001 µM was < 10%. For C#C[C@@]1(O)CC[C@@]2(C)C(CCC3C2CC[C@]2(C)C(c4cccnc4)=CCC32)C1 (stereo partly drawn) [Compound 257, (3R,10S,13S)-3-ethynyl-10,13-dimethyl-17-(pyridin-3-yl)-2,3,4,5,6,7,8,9,10,11,12,13,14,15-tetradecahydro-1H-cyclopenta[a]phenanthren-3-ol], the inhibition at 0.001 µM was 10 to 50%. With C[C@@]1(O)CC[C@@]2(C)C(CCC3C4=CC=C(c5cccnc5)[C@@]4(C)CCC32)C1 (stereo partly drawn) [Compound 260, (3R,10S,13S)-3,10,13-trimethyl-17-(pyridin-3-yl)-2,3,4,5,6,7,8,9,10,11,12,13-dodecahydro-1H-cyclopenta[a]phenanthren-3-ol] the inhibition at 0.001 µM was < 10%. With CC1(C)C(=O)CC[C@@]2(C)C1=CC[C@@H]1[C@@H]2CC[C@]2(C)C(c3cccnc3)=CC[C@@H]12 [Compound 293, (10R,13S)-4,4,10,13-tetramethyl-17-(pyridin-3-yl)-4,7,8,9,10,11,12,13,14,15-decahydro-1H-cyclopenta[a]phenanthren-3(2H)-one] the inhibition at 0.001 µM was < 10%. For CC1(C)C2=CC[C@@H]3[C@H](CC[C@]4(C)C(c5cccnc5)=CC[C@@H]34)[C@@]2(C)CCC1O (stereo partly drawn) [Compound 294, (10R,13S)-4,4,10,13-tetramethyl-17-(pyridin-3-yl)-2,3,4,7,8,9,10,11,12,13,14,15-dodecahydro-1H-cyclopenta[a]phenanthren-3-ol], the inhibition at 0.001 µM was < 10%.

Same assay, conditions: test compound at 1 nM, read-out: CYP17 enzymatic assay percent inhibition at 1 nM (Biological Example No. 12)
In the case of C[C@@]1(O)CC[C@@]2(C)C(=CCC3C2CC[C@]2(C)C(c4cccnc4)=CCC32)C1 (stereo partly drawn) [Compound 267, (3R,10R,13S)-3,10,13-trimethyl-17-(pyridin-3-yl)-2,3,4,7,8,9,10,11,12,13,14,15-dodecahydro-1H-cyclopenta[a]phenanthren-3-ol], the inhibition at 0.001 µM is reported as > 50%. In the case of C[C@]1(O)CC[C@@]2(C)C(=CCC3C2CC[C@]2(C)C(c4cccnc4)=CCC32)C1 (stereo partly drawn) [Compound 268, (3S,10R,13S)-3,10,13-trimethyl-17-(pyridin-3-yl)-2,3,4,7,8,9,10,11,12,13,14,15-dodecahydro-1H-cyclopenta[a]phenanthren-3-ol], the inhibition at 0.001 µM is reported as > 50%. In the case of C[C@]1(O)CC[C@@]2(C)C(=CCC3C2CC[C@]2(C)C(c4cncc(F)c4)=CCC32)C1 (stereo partly drawn) [Compound 270, (3S,10R,13S)-17-(5-fluoropyridin-3-yl)-3,10,13-trimethyl-2,3,4,7,8,9,10,11,12,13,14,15-dodecahydro-1H-cyclopenta[a]phenanthren-3-ol], the inhibition at 0.001 µM is reported as 10 to 50%. With CC(=O)Nc1cncc(C2=CCC3C4CC=C5C[C@@H](O)CC[C@]5(C)C4CC[C@]23C)c1 (stereo partly drawn) [Compound 281, N-(5-((3S,10R,13S)-3-hydroxy-10,13-dimethyl-2,3,4,7,8,9,10,11,12,13,14,15-dodecahydro-1H-cyclopenta[a]phenanthren-17-yl)pyridin-3-yl)acetamide] the inhibition at 0.001 µM was < 10%.
